Results: ChEMBL document CHEMBL3045843, “Binding of Nicotinoids and the Related Compounds to the Insect Nicotinic Acetyicholine Receptor” (J Pestic Sci, 1992)

Assays:
[1] = target: T1, Nicotinic acetylcholine receptor alpha 5 subunit (Musca domestica, UniProt A9XFY4); test: Displacement of [3H]alpha-bungarotoxin from nAChR in Musca domestica (house fly) head membrane after 60 min by scintillation counting
T1 sequence (A9XFY4 whole entry): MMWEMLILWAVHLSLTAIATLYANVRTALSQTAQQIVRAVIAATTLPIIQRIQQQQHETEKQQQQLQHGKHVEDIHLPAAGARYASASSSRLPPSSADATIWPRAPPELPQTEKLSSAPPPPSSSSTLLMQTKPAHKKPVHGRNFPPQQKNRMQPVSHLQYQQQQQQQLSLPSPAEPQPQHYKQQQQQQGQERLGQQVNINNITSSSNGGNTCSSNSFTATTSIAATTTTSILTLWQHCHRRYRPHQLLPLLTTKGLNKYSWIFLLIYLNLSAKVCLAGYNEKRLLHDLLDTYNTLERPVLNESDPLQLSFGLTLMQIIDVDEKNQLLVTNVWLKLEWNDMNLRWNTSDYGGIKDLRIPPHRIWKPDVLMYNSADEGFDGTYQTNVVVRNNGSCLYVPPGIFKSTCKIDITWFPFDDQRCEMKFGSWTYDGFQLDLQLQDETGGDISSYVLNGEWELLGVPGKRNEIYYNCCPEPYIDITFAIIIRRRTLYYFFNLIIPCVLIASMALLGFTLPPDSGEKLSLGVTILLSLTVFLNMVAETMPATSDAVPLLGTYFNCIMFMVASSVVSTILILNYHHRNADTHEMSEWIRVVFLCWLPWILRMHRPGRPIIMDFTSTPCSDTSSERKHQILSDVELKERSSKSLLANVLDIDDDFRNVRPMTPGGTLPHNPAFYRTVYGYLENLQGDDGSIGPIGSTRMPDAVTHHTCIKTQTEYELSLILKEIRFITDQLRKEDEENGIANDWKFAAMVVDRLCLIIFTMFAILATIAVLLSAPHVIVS

[2] = Displacement of [3H]alpha-bungarotoxin from nAChR in honeybee head membrane after 60 min by scintillation counting; format: cell membranes, Apis mellifera
Acetylcholinesterase = Acetylcholinesterase (Musca domestica, UniProt Q7YWJ9); test: Inhibition of Musca domestica (house fly) acetylcholinesterase
Sequence of Acetylcholinesterase (Q7YWJ9 whole entry): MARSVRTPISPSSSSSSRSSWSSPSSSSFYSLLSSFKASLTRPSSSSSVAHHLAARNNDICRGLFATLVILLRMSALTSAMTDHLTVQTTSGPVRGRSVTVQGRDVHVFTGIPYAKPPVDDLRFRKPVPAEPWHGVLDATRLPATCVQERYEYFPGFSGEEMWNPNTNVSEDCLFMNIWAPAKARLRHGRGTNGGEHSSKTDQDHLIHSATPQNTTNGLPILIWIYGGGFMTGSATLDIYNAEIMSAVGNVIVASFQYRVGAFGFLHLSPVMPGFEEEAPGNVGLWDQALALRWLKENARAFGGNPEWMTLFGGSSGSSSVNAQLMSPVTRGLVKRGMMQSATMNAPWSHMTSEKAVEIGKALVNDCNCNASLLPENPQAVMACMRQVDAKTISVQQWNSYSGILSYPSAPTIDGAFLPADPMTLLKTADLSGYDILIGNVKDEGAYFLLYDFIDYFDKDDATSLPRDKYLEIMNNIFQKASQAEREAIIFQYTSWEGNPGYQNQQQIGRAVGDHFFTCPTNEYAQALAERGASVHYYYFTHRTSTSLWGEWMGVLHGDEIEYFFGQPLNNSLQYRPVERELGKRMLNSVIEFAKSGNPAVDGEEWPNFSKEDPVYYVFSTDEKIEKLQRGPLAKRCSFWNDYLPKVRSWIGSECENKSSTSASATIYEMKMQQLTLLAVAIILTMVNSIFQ

[3] = Disocciation constant, pKa of the compound at 37 degC; format: physicochemical
Musca domestica = test: Insecticidal activity against Musca domestica (house fly) assessed as mortality relative to nicotine; format: functional
[4] = Disocciation constant, pKa of the compound at 25 degC; format: physicochemical

SMILES | Ki [1] [µM] | Ki [2] [µM] | IC50 (Acetylcholinesterase) [µM] | pKa [3] | fold change (FC) (Musca domestica) | pKa [4]
CN(C)Cc1ccncc1 | > 1000 | > 1000 |  |  |  | 
CCN(CC)Cc1ccccn1 |  |  | 3000 | 8.42 | 0.1 | 
CCN(CC)Cc1ccncc1 |  |  | 7700 | 7.96 | 0.1 | 
CN(C)Cc1ccccn1 | > 1000 | > 1000 |  |  |  | 
CCNCc1cccnc1 | 380 | 289 | 7100 | 8.96 | 0.34 | 
CCCNCc1cccnc1 | > 1000 | > 1000 | 17000 | 8.38 | 0.15 | 
CC(C)NCc1cccnc1 | 226 | 103 | 3900 | 8.46 | 0.46 | 
CCCCNCc1cccnc1 | > 1000 | 406 | 23000 | 8.66 | 0.16 | 
CCN(CC)Cc1cccnc1 | 450 | 155 | 890 | 8.12 | 0.46 | 
CCCN(CCC)Cc1cccnc1 | 220 | 200 | 1700 | 8.13 | 0.16 | 
CCCCN(CCCC)Cc1cccnc1 | > 1000 | 175 | 2800 | 8.08 | 0.28 | 
c1cncc(CN2CCCCC2)c1 | 67.6 | 48.7 | 1500 | 8.16 | 0.79 | 
c1cncc(CN2CCOCC2)c1 | > 1000 | > 1000 |  | 5.76 | 0.04 | 
CCOc1ccccc1Cn1nc(OC)oc1=O | > 100 | > 100 |  |  |  | 
COc1nn(-c2ccc(C)cc2OC)c(=O)o1 | > 1000 | > 1000 |  |  |  | 
N#C/N=C1/NCCN1/C=N/c1ccccc1 | > 500 | > 500 |  |  |  | 
O=[N+]([O-])C(/C=N/c1ccccc1)=C1NCCN1 | > 500 | > 500 |  |  |  | 
CN(C)Cc1cccnc1 | 201 | 208 | 5100 | 7.76 | 0.45 | 
CNCc1cccnc1 | 600 | 377 | 31000 | 8.3 | 0.3 | 
c1cncc(C2CCCCN2)c1 (racemic) [DL-ANABASINE] |  |  |  |  | 0.6 | 
CN1CCC[C@H]1c1cccnc1 (racemic) [NICOTINE] |  |  | 620 |  | 1 | 
c1cncc([C@@H]2CCCN2)c1 (racemic) [NORNICOTINE] | 8.77 | 7.61 | 9700 |  | 0.3 | 
O=[N+]([O-])C=C1NCCN1 [2-(NITROMETHYLENE)IMIDAZOLIDINE] | > 1000 | > 1000 |  |  |  | 
c1cncc([C@@H]2CCCCN2)c1 [ANABASINE] |  |  |  | 8.48 |  | 8.7

SMILES | Ki [1] [µM] | Ki [2] [µM] | IC50 (Acetylcholinesterase) [µM] | pKa [3] | fold change (FC) (Musca domestica) | pKa [4]
COC(=O)C1=CCCN(C)C1 [ARECOLINE] | 516 | 240 |  |  |  | 
CN1[C@@H]2CC[C@H]1C[C@@H](OC(=O)C(CO)c1ccccc1)C2 (stereo partly drawn) [ATROPINE] | 32.5 | 26.3 |  |  |  | 
C[N+](C)(C)CCOC(N)=O [CARBACHOL] | 212 | 175 |  |  |  | 
CCC[C@H]1CCCCN1 [CONIINE] | > 1000 | 262 |  |  |  | 
CN1C(=O)CC[C@H]1c1cccnc1 [COTININE] | > 1000 | > 1000 |  |  | 0.03 | 4.5
O=c1cccc2n1C[C@@H]1CNC[C@H]2C1 [CYTISINICLINE] | 1.23 | 0.65 |  |  |  | 
C[N+](C)(C)CCCCCCCCCC[N+](C)(C)C [DECAMETHONIUM] | 103 | 224 |  |  |  | 
C1=C(c2cccnc2)NCC1 [DIHYDRONICOTYRINE] | 1.92 | 1.27 | 350 | 7.21 | 2.6 | 7.4
C[N+]1(C)CCN(c2ccccc2)CC1 [DIMETHYLPHENYLPIPERAZINIUM] | 86.3 | 49.5 |  |  |  | 
c1cncc(C2CCCCN2)c1 (stereo not drawn) [DL-ANABASINE] | 3.71 | 3.91 | 3900 |  |  | 
O=[N+]([O-])/N=C1\NCCN1Cc1ccc(Cl)nc1 [IMIDACLOPRID] | 7.47 | 2.53 |  |  |  | 
CN1[C@@H](CC(=O)c2ccccc2)CCC[C@H]1C[C@H](O)c1ccccc1 [LOBELINE] | 12.8 | 9.13 |  |  |  | 
CNC1(C)C2CCC(C2)C1(C)C (stereo not drawn) [MECAMYLAMINE] | > 1000 | 453 |  |  |  | 
c1cncc(C2=NCCC2)c1 [MYOSMINE] | > 1000 | > 1000 | 6800 | 5.23 | 0.36 | 5.5
c1cncc(CN2CCCC2)c1 [N-(3-PYRIDYLMETHYL)PYRROLIDINE] | 16.4 | 14.3 | 1400 | 8.11 | 0.43 | 
CN(C)C1CSSC1 [NEREISTOXIN] | 187 | 254 |  |  |  | 
CN1CCC[C@H]1c1cccnc1 [NICOTINE] | 2.48 | 1.48 | 2600 | 7.66 |  | 7.9
Cn1cccc1-c1cccnc1 [NICOTYRINE] | > 1000 | > 1000 | 2300 | 4.5 | 0.18 | 4.7
c1cncc([C@@H]2CCCN2)c1 [NORNICOTINE] |  |  | 4200 | 8.76 |  | 9
C[N+]1(CCCCC[N+]2(C)CCCC2)CCCC1 [PENTOLINIUM] | 108 | 72.2 |  |  |  | 
CN1CCC[C@@H]1c1cccnc1 [R-NICOTINE] | 59.9 | 43.7 | 230 |  | 1 | 
O=C1N(Cc2ccccc2)C2C[S+]3CCCC3C2N1Cc1ccccc1 (stereo not drawn) [TRIMETHAPHAN] | 2.75 | 5.79 |  |  |  | 
COc1cc2c3cc1Oc1cc(ccc1O)C[C@@H]1c4c(cc(OC)c(O)c4Oc4ccc(cc4)C[C@@H]3N(C)CC2)CC[N+]1(C)C [TUBOCURARINE] | 1.88 | 3.57 |  |  |  | 
